{"source": "patent US11897918B2", "about": "“Compositions and methods to increase production” (priority 2014, dated 2024)", "key": {"[1]": {"tested_on": "influenza H3N2 strain IVR-165 (A/Victoria/361/2011)", "assay_type": "cell-based"}, "[2]": {"tested_on": "MDCK cells", "assay": "Cell viability, VI-CELL trypan blue exclusion", "assay_type": "cell-based", "method": "Cell viability assays were performed using MDCK cells treated with 1 uM sulphonamide or DMSO control. Cell viability was monitored over time up to 60 hrs using a VI-CELL machine (Beckman Coulter)(cell viability measured based on trypan blue exclusion). The sulphonamide analog used herein is not a marketed drug, therefore toxicity was conducted to identify cell viability over the course of incubation at the highest tested concentration of 10 μM and 60 hours of contact. […] At least 91% viability is detected in cells treated with sulphonamide."}, "[3]": {"tested_on": "virus-infected host cell culture", "assay_type": "cell-based, influenza", "details": "versus control without compound"}, "[4]": {"tested_on": "B/Massachusetts/2/2012 (low-expressing)", "assay": "ambr15 mini-bioreactor and shake flask comparison, B strain", "assay_type": "cell-based, influenza B", "details": "CDM and DM134 media, shake flasks and 15 ml bioreactors", "method": "The two lead compounds were further tested in the commercially available small-scale bioreactor system, ambr15™ (TAP Biosystems). The ambr15 system mimics the characteristics of classical bioreactors at microscale (10-15 ml), controlled by an automated workstation, which enables the rapid evaluation of multiple bioreactor cultures at microscale.\nTo test both lead compounds were tested side-by-side under controlled conditions, with two infection media formulations (DM134 and CDM) and two flu strains, A/Victoria/361/2011 (IVR-165) (high-expressing) and B/Massachusetts/2/2012 (low-expressing). The infection parameters used in the experiment were as follows: seeding density was 1.0×10^6 cells/ml or 2.5×10^6 cells/mL; pH was 7.1+/−0.02 (pH control by dual control with 0.05N NaOH and CO2 gas); DO was 50% (range 50-80%), controlled by O2 gas; agitation was 1000 rpm (local control); temperature was 34.0° C., locally monitored with bioreactor controller probe; vessel type was Spargeless, extended temperature vessels; and, aeration rate during run was 1 mL/min.\nThe quantification of HA was carried out by ELISA then was subsequently confirmed by HPLC. It was also shown that AFZ077 was able to boost HA yield in the DM134 medium with both low (1×10^6 per mL) and high (2.5×10^6 per mL) infection cell densities in this system. […] Overall, greater enhancement effect seen for low-expressing strains. […]"}, "[5]": {"tested_on": "A/Victoria/361/2011 (IVR-165) (high-expressing)", "assay": "ambr15 mini-bioreactor and shake flask comparison, A strain", "assay_type": "cell-based, influenza A H3N2", "details": "CDM and DM134 media, shake flasks and 15 ml bioreactors; listed as AFZ077"}, "[6]": {"tested_on": "A and B strains", "assay_type": "cell-based, influenza", "details": "DM134 medium, 2.5×10^6 per mL"}, "[7]": {"tested_on": "B/Massachusetts/02/2012", "assay": "Ambr 250 mL bioreactor, B strain", "assay_type": "cell-based, influenza B", "details": "any of the doses tested, ambr250", "method": "FIG. 13 provides a graph showing HA yields in the B strain tested with BYF589 at concentrations as indicated.\nFIG. 14 provides a graph showing HA yields in the B strain tested with AFZ077 at concentrations as indicated.\nThe results were confirmed using 3 different viruses (a high-, medium-, and poor-expressing strains). […] To confirm these findings in a larger-scale system, TD Ambr™ 250 mL bioreactors were employed. Both of the lead compounds (as well as DMSO alone as negative control, and, no compound/no DMSO as double-negative control) were tested with a high- and low-expressing strains to determine if the observed enhancement in the small-scale cultures can be reproduced in a larger-scale system. The following parameters were used: Spent DM134:Fresh PFM (1:3); Virus Strains were A/Victoria/361/2011 (IVR-165) and B/Massachusetts/02/2012; MOI was 10^−5 for A/Victoria IVR-165 and 10^−4 for B/Massachusetts; ICD: 2.0e6-3.0e6 cells/mL; N-1 Process: 1B (no Medium Exchange); and, Harvest Time was 65-72 hours post-infection. HA yields were measured by two methods: RP-HPLC and HA-ELISA. […] Note that the error bars represent one standard deviation from the mean, to illustrate variability of the HA-ELISA assay between assay repeats."}, "[8]": {"target": "T1, 5HT7 receptor (Canis lupus familiaris, UniProt A0A8I3S709)", "T1 construct": "endogenous in cells; host or cells: MDCK 33016PF suspension cells (inferred)", "T1 sequence (A0A8I3S709 entry or part of it)": "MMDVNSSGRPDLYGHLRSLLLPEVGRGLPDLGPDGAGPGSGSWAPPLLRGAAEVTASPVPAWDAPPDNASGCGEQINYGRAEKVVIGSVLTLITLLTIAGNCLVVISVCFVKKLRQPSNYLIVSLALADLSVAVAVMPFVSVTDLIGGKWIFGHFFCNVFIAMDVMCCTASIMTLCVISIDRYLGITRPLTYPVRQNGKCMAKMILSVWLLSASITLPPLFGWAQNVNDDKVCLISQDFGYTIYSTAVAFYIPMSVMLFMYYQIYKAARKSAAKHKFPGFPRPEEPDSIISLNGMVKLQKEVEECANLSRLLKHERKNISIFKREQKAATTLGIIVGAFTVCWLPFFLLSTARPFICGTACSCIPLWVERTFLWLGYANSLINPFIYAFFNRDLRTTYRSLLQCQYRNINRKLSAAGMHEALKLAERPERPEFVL", "assay": "Dependence of HA enhancement on 5HT7 receptor activity", "assay_type": "cell-based", "details": "B/Mass in DM134 media, 65 hrs HA yield by ELISA", "description": "FIG. 15 provides a graph showing that Flu HA yield enhancement by AFZ077 is dependent on decreasing activity of the 5HT7 receptor. Flu B strain (B/Mass) in DM134 media; 65 hrs HA yield by ELISA (μg/ml).\nStudies based on Formula 8 (e.g., Compound E) were expanded to identify potential compounds that may share certain mechanisms of action, as summarized in Table 5 below."}, "[9]": {"details": "0 and 60 hr, mass spec"}, "[10]": {"tested_on": "cellular cholesterol", "assay": "Total cellular cholesterol (Amplex Red)", "assay_type": "cell-based", "method": "Possible effects of BYF589 as well as various enzyme inhibitors of the pathway on the cell viability and total cellular cholesterol levels were examined. Tested samples included DMSO, BYF589 (1 μM), MEV (100 μM), FTI (0.5 μM), ZA (1 μM) and GTI (0.5 μM).\nFree cholesterol is oxidized by cholesterol oxidase to form a cholesterol ketone and H2O2, which then reacts with Amplex Red+HRP to produce the fluorescent product resorufin."}, "[11]": {"tested_on": "influenza in MDCK 33016PF cells", "assay_type": "cell-based", "details": "MEV plus BYF"}, "[12]": {"tested_on": "MDCK 33016PF cells", "details": "24 hours; BYF589 1 μM, MEV 100 μM, FTI 0.5 μM, ZA 1 μM, GTI 0.5 μM"}, "[13]": {"tested_on": "influenza H3N2 virus", "details": "MOI of 10^−3, 24 hours post infection; cited from earlier work"}, "[14]": {"tested_on": "Subtype A/Texas X223A", "assay_type": "cell-based, influenza A", "details": "0.05 μM"}, "[15]": {"tested_on": "Subtype AH3N2", "assay": "SAR study of analogues, HA-ELISA", "details": "0.05 μM, FIG. 7"}}, "note": "“Also recorded” adds a separate entry of the source."}
{"compound": "Cc1cccc(S(=O)(=O)N2CCC[C@@H]2CCN2CCC(C)CC2)c1", "note": "[Compound E]", "values": [{"measurement": "HA yield before the decrease (earlier addition)", "setting": "[1]", "value": "about 20 μg/ml"}, {"measurement": "HA yield, compound added 6 hours post infection", "setting": "[1]", "value": "about 5 μg/ml"}, {"measurement": "impact on cell viability", "setting": "[2]; monitored up to 60 hrs", "value": "Neither sulphonamide nor pitavastatin had a negative impact on cell viability"}, {"measurement": "cell viability", "setting": "[2]; up to 10 μM and 60 hours of contact", "value": "At least 91%"}, {"measurement": "increase in HA yield at 24 hours, compound added at T=2, 4", "setting": "[3]", "value": "approximately 4 fold"}, {"measurement": "increase in HA yield at 24 hours, compound added at T=6", "setting": "[3]", "value": "no significant increase"}, {"measurement": "increase in HA yield at 24 hours, compound added at time of infection (T=0)", "setting": "[3]", "value": "approximately 4 fold"}, {"measurement": "HA yield enhancement, low-expressing B strain", "setting": "[4]", "value": "boosts HA yield"}, {"measurement": "HA yield enhancement, high-expressing A strain", "setting": "[5]", "value": "much greater enhancement in HA yield; also recorded: Only AFZ077 enhanced yield"}, {"measurement": "HA yield over original yields, high ICD format with AFZ treatment", "setting": "[6]", "value": "~4", "unit": "fold"}, {"measurement": "increase in HA yield over the controls", "setting": "[7]", "value": "no significant increase in HA yield"}, {"measurement": "HA enhancing effect in presence of serotonin (5HT)", "setting": "[8]", "value": "can be abrogated by adding serotonin (5HT)"}, {"measurement": "loss of compound in media or media+MDCK cells", "setting": "[9]", "value": "No loss of compounds was observed"}]}
{"compound": "CC(O)(CCO)CC(=O)O", "note": "(centres unmarked) [MEV, Mevalonate]", "values": [{"measurement": "cellular cholesterol levels, in combination with BYF", "setting": "[10]; MEV plus BYF", "value": "does not replenish cellular cholesterol levels"}, {"measurement": "cellular cholesterol levels, compound alone", "setting": "[10]; normalized to DMSO", "value": "no effect on cellular cholesterol levels"}, {"measurement": "HA yield enhancement, in combination with BYF", "setting": "[11]", "value": "reduces HA yield enhancement"}, {"measurement": "effect on cell viability", "setting": "[12]", "value": "no negative effect on cell viability"}]}
{"compound": "COc1ccc(C2=N[C@@H](c3ccc(Cl)cc3)[C@@H](c3ccc(Cl)cc3)N2C(=O)N2CCNC(=O)C2)c(OC(C)C)c1", "note": "[Nutlin-3]", "values": [{"measurement": "copies of viral genome in the supernatant compared with control", "setting": "[13]", "value": "up to nineteen times more copies of viral genome"}]}
{"compound": "CC(C)c1nc(N(C)S(C)(=O)=O)nc(-c2ccc(F)cc2)c1/C=C/[C@@H](O)C[C@@H](O)CC(=O)O", "note": "[Rosuvastatin, bis[(E)-7-[4-(4-fluorophenyl)-6-isopropyl-2-[methyl(methylsulfonyl)amino]pyrimidin-5-yl](3R,5S)-3,5-dihydroxyhept-6-enoic acid]]", "values": [{"measurement": "HA yield compared with other commercially available statins", "setting": "[14]", "value": "did not produce the yield potential of comparative statins"}]}
{"compound": "CC(C)n1c(/C=C/[C@@H](O)C[C@@H](O)CC(=O)O)c(-c2ccc(F)cc2)c2ccccc21", "note": "[fluvastatin, (3R, 5S, 6E)-7-[3-(4-fluorophenyl)-1-(propan-2-yl)-1H-indol-2-yl]-3,4-dihydroxyhept-6-enoic acid]", "values": [{"measurement": "HA yield compared with pitavastatin", "setting": "[15]", "value": "performed even better than pitavastatin"}]}
